For one experiment, the target named is T1, hCA VB (Homo sapiens, UniProt Q9Y2D0).
T1 construct: made in house
Put plainly: Stopped flow CO2 hydrase assay. It counts as biochemical. Particulars: mean from three assays, errors ±10%. How it is done:
(§1) CA enzyme inhibition data was determined by measuring the CA-catalysed hydration of CO2 in the presence of 11–13. In addition to the ubiquitous hCA II, all other catalytically active hCA enzymes (I, IV, VA, VB, VI, VII, IX, XII, XIII and XIV) were assessed, providing a comprehensive profile of CA enzyme inhibition, Table 2. […]. Different CAs have different expression profiles and cell locations. […] A comparison between hCA VII and hCA II has identified 7 residue differences (S65A, Q67N, D69E, K91I, A135V, S136Q, S204L) among the 23 residues within the active site cavity. […] Here, we propose that this further extends to the minimal differences in observed active site compound binding strength between these isozymes. […]. Furthermore, they are considered a validated target for antiobesity drug development, in which they have been proposed to have an involvement in insulin secretion, however this mechanism is not yet fully understood. […]. The appreciable inhibition of the glitazones for the different CA isozymes highlights the potential for CA-mediated off-target effects of these drugs when used clinically, and given the reported polypharmacology observed for these compounds, this may provide an avenue for further understanding of their mechanism of action.
(§2) An Applied Photophysics stopped-flow instrument was used for assaying the inhibition of the CA catalysed CO2 hydration reaction. Phenol red (0.2 mM) was used as indicator, monitored at the absorbance maximum of 557 nm. Reactions were carried out in a HEPES (10 mM, pH 7.4) buffer and NaClO4 (10 mM), for maintaining the ionic strength constant, the ClO4^- anion is not inhibitory against most CA isoforms at 25 °C [62]. […]. Inhibitors were tested in the concentration range of 0.01 nM–100 μM, and at least six traces of the initial 5–10% of the reaction have been used for determining the initial velocity. The uncatalyzed rates were determined in the same manner and subtracted from the total observed rates. Stock solutions of inhibitor (1 mM) were prepared in distilled, deionized water with 10–20% (v/v) DMSO (which is not inhibitory at these concentrations), and dilutions were performed thereafter with the assay buffer. Inhibitor and enzyme solutions were preincubated together for 15 min at room temperature prior to assay to allow for the formation of the enzyme inhibitor complex. The inhibition constants were obtained by nonlinear least squares methods using PRISM 3 (GraphPad Software Inc, San Diego, CA, USA). […]. The catalytic activity (in the absence of inhibitors) of the different enzymes was calculated from Lineweaver–Burk plots and represent the mean from at least three different determinations. Enzyme concentrations in the assay system were in the range of 3.8–9.5 nM. Enzymes used here were recombinant ones, prepared and purified as described earlier.

For the next experiment, the target named is T2, hCA VA (Homo sapiens, UniProt P35218).
T2 construct: made in house
Put plainly: Stopped flow CO2 hydrase assay. In kind it is biochemical. Particulars: mean from three assays, errors ±10%. How it is done: as §1, §2

For a further experiment, the target named is T3, hCA XIII (Homo sapiens, UniProt Q8N1Q1).
T3 construct: made in house
The experiment is described as follows: Stopped flow CO2 hydrase assay. In kind it is biochemical. Particulars: mean from three assays, errors ±10%. The protocol:
as §1, §2

The target in a further experiment is T4, hCA XIV (Homo sapiens, UniProt Q9ULX7).
T4 construct: made in house
Put plainly: Stopped flow CO2 hydrase assay. It counts as biochemical. The following applies: mean from three assays, errors ±10%. How it is done: as §1, §2

The target of a further experiment is T5, hCA VI (Homo sapiens, UniProt P23280).
T5 construct: made in house
Put plainly: Stopped flow CO2 hydrase assay. It counts as biochemical. Particulars: mean from three assays, errors ±10%. The protocol: as §1, §2

A further experiment deals with T6, hCA I (Homo sapiens, UniProt P00915).
T6 construct: made in house
Put plainly: Stopped flow CO2 hydrase assay. In kind it is biochemical. Particulars: mean from three assays, errors ±10%. How it is done:
(§3) In addition to the ubiquitous hCA II, all other catalytically active hCA enzymes (I, IV, VA, VB, VI, VII, IX, XII, XIII and XIV) were assessed, providing a comprehensive profile of CA enzyme inhibition, Table 2. […] Different CAs have different expression profiles and cell locations. […] A comparison between hCA VII and hCA II has identified 7 residue differences (S65A, Q67N, D69E, K91I, A135V, S136Q, S204L) among the 23 residues within the active site cavity.
(§4) An Applied Photophysics stopped-flow instrument was used for assaying the inhibition of the CA catalysed CO2 hydration reaction. […] The uncatalyzed rates were determined in the same manner and subtracted from the total observed rates. […] Inhibitor and enzyme solutions were preincubated together for 15 min at room temperature prior to assay to allow for the formation of the enzyme inhibitor complex. The inhibition constants were obtained by nonlinear least squares methods using PRISM 3 (GraphPad Software Inc, San Diego, CA, USA). […] The catalytic activity (in the absence of inhibitors) of the different enzymes was calculated from Lineweaver–Burk plots and represent the mean from at least three different determinations. […] Enzymes used here were recombinant ones, prepared and purified as described earlier.

The target of a further experiment is T7, hCA IX (Homo sapiens, UniProt Q16790).
T7 construct: made in house
The experiment is described as follows: Stopped flow CO2 hydrase assay. In kind it is biochemical. Particulars: mean from three assays, errors ±10%. How it is done: as §3, §4

The next experiment deals with T8, hCA II (Homo sapiens, UniProt P00918).
T8 construct: made in house
Put plainly: Stopped flow CO2 hydrase assay. It counts as biochemical. Particulars: mean from three assays, errors ±10%. How it is done: as §3, §4

For another experiment, the target named is T9, hCA IV (Homo sapiens, UniProt P22748).
T9 construct: made in house
The experiment is described as follows: Stopped flow CO2 hydrase assay. In kind it is biochemical. The following applies: mean from three assays, errors ±10%. The protocol: as §3, §4

For the next experiment, the target named is T10, hCA XII (Homo sapiens, UniProt O43570).
T10 construct: made in house
Put plainly: Stopped flow CO2 hydrase assay. In kind it is biochemical. Particulars: mean from three assays, errors ±10%. The protocol: as §3, §4

Another experiment deals with CA II. The following applies: CA II hit fragments, SPR; cited from earlier work.
For the next experiment, the target named is T11, hCA VII (Homo sapiens, UniProt P43166).
T11 construct: made in house
Put plainly: Stopped flow CO2 hydrase assay. In kind it is biochemical. Particulars: mean from three assays, errors ±10%. The protocol:
as §3, §4

Each structure is given as a SMILES string. Counter-ions that a name gives are not always drawn. Some results are limits rather than exact numbers.

T2 sequence (P35218 39-305): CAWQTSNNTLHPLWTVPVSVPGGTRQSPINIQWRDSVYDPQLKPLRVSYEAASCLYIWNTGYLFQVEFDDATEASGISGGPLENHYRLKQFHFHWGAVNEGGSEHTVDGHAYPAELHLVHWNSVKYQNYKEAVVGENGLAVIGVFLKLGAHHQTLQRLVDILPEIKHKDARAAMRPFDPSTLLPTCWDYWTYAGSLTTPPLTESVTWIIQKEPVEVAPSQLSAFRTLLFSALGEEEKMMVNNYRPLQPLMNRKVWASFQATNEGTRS
T5 sequence (P23280 18-308): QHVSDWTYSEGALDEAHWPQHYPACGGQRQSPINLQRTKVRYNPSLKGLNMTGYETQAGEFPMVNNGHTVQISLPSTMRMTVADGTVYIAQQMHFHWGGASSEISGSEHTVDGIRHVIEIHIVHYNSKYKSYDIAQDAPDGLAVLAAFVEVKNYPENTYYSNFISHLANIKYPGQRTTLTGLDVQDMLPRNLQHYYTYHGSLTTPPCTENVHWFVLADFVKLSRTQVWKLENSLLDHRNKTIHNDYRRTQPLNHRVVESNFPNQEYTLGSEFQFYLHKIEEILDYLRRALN
T6 sequence (P00915 whole entry): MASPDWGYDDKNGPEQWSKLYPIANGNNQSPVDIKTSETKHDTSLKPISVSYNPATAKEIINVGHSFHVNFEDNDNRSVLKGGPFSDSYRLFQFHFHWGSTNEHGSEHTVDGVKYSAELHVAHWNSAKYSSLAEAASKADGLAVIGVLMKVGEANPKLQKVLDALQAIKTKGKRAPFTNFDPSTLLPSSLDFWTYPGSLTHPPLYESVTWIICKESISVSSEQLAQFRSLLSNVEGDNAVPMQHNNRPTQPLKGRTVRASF
T4 sequence (Q9ULX7 16-337): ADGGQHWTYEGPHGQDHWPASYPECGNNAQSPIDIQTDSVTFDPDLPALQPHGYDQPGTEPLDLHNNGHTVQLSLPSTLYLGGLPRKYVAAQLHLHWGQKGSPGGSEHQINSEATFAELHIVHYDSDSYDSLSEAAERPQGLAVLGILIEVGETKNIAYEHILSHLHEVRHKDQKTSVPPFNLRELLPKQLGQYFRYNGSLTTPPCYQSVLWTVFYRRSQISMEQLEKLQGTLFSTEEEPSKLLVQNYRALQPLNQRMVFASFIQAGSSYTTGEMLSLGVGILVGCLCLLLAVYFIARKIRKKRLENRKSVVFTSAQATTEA
T3 sequence (Q8N1Q1 whole entry): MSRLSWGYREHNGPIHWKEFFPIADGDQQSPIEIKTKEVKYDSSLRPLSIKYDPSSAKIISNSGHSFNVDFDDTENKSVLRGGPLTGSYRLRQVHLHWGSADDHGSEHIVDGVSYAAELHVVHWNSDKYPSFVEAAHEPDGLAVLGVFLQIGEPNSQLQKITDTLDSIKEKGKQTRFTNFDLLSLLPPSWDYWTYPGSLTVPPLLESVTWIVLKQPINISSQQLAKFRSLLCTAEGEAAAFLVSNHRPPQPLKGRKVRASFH
T9 sequence (P22748 19-312): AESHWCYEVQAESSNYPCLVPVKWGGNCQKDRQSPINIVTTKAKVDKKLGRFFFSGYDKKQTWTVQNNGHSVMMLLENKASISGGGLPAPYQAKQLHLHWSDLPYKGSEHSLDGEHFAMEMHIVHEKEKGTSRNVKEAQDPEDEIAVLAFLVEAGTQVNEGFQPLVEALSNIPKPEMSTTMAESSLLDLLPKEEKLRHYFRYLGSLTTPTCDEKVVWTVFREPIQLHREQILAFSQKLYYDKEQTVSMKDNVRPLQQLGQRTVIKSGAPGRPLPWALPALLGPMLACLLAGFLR
T1 sequence (Q9Y2D0 34-317): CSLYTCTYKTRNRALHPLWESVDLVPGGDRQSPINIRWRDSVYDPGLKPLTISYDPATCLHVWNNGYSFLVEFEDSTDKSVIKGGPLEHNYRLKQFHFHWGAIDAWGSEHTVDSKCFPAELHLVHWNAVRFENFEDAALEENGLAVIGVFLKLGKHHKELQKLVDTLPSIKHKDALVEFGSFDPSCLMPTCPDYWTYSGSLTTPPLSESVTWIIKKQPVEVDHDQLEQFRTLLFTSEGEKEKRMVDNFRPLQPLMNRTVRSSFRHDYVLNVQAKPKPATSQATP
T10 sequence (O43570 25-354): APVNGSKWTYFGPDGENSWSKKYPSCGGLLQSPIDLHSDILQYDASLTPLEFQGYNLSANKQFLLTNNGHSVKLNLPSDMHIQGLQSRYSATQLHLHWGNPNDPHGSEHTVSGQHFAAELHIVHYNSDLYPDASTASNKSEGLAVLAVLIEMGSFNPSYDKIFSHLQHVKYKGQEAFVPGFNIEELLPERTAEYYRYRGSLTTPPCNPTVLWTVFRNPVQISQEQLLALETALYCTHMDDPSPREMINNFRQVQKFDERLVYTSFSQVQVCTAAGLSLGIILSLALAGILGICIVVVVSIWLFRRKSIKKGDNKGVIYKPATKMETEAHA
T11 sequence (P43166 whole entry): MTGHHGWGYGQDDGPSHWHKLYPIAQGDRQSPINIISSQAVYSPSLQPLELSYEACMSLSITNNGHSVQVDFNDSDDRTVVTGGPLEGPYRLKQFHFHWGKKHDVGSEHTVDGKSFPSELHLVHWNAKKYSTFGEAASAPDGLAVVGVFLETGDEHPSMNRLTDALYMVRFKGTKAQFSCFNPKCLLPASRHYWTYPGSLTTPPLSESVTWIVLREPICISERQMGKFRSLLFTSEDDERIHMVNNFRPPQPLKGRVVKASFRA

A word on the Ki: it is the equilibrium dissociation constant of an inhibitor or competing ligand from its target. `Cc1c(C)c2c(c(C)c1O)CCC(C)(COc1ccc(CC3SC(=O)NC3=O)cc1)O2` (racemic) [Compound 11, (±)-5-[4-[(6-Hydroxy-2,5,7,8-tetramethylchroman-2-yl)methoxy]benzyl]-2,4-thiazolidinedione]: the Ki on hCA VB was determined as 28.9 µM; at hCA VA, 12.4 µM; on hCA XIII, 32.3 µM; at hCA XIV, 16.8 µM; on hCA VI it was 46.7 µM; on hCA I, 57.2 µM. The Ki was 1.3 µM at hCA IX, 1.3 µM on hCA II, greater than 100 µM on hCA IV and 0.92 µM on hCA XII.
By Kd is commonly meant the concentration at which binding is half-saturated. With `C/C(=C\C(=O)O)c1ccc(Cl)cc1` [Compound 1], the Kd on CA II is 905 µM.
`O=C(O)c1cccc(Oc2ccccc2)c1` [Compound 2]: the Kd at CA II was 1280 µM.
As to `O=C(O)Cc1cccc(OCc2ccccc2)c1` [Compound 3], the Kd at CA II is 1080 µM.
On to `Cc1ccnc(S(N)(=O)=O)n1` [Compound 4], for which the Kd at CA II was 1.4 µM.
Consider `Clc1ccccc1OCc1nn[nH]n1` [Compound 5], for which, at CA II, the Kd is 631 µM.
Regarding `Clc1ccc(OCc2nn[nH]n2)cc1` [Compound 6], the Kd on CA II is 709 µM.
On to `O=C(CSc1nnc[nH]1)c1ccccc1` [Compound 7], for which the Kd at CA II was 194 µM.
Consider `CN(CCOc1ccc(CC2SC(=O)NC2=O)cc1)c1ccccn1` (centres unmarked) [Compound 12, 5-[[4-[2-(methyl-2-pyridinylamino)ethoxy]phenyl]methyl]-2,4-thiazolidinedione], for which the Ki at hCA VB amounted to 40.9 µM; at hCA VA it was 8.2 µM; on hCA XIII, 7.4 µM; on hCA XIV it was 2.3 µM; at hCA VI, 5.9 µM; on hCA I it was 16.3 µM. Besides, the Ki on hCA IX is 2.5 µM; on hCA VII, 6.1 µM; at hCA II, 0.75 µM; at hCA IV, 58.9 µM; at hCA XII it was 3.7 µM.
Turning to `CCc1ccc(CCOc2ccc(CC3SC(=O)NC3=O)cc2)nc1` (centres unmarked) [Compound 13, 5-[[4-[2-(5-ethyl-2-pyridinyl)ethoxy]phenyl]methyl]-2,4-thiazolidinedione monohydrochloride], the Ki stood at 36.2 µM on hCA VB; 5.3 µM at hCA VA; 21.5 µM at hCA XIII; 6.6 µM at hCA XIV; 19.8 µM at hCA VI; 39.6 µM at hCA I. The Ki was 0.75 µM at hCA IX, 4.9 µM at hCA VII, 7.1 µM on hCA II and 92.1 µM at hCA IV.

These data come from publication PMC8158703, “The Glitazone Class of Drugs as Carbonic Anhydrase Inhibitors—A Spin-Off Discovery from Fragment Screening” (Molecules, 2021).
